Reference: ChEMBL document CHEMBL5154851, “Novel benzothiazole‒urea hybrids: Design, synthesis and biological activity as potent anti-bacterial agents against MRSA” (Eur J Med Chem, 2022)
In brackets after ≈: the same amount, converted by molar mass. Activity calls are given as the source filed them. The rule behind the calls is not given here.

Legend:
Staphylococcus aureus [1] = test: Antibacterial activity against Staphylococcus aureus ATCC6538 incubated for 18 to 20 hrs by double dilution method; type: functional; conditions: time 18-20 hrs
Staphylococcus aureus [2] = test: Antibacterial activity against methicillin-resistant Staphylococcus aureus ATCC2858 incubated for 18 to 20 hrs by double dilution method; type: functional; conditions: time 18-20 hrs
Escherichia coli = test: Antibacterial activity against Escherichia coli incubated for 18 to 20 hrs by double dilution method; type: functional; conditions: time 18-20 hrs
Pseudomonas aeruginosa = test: Antibacterial activity against Pseudomonas aeruginosa incubated for 18 to 20 hrs by double dilution method; type: functional; conditions: time 18-20 hrs
Candida albicans = test: Antibacterial activity against Candida albicans ATCC10231 incubated for 18 to 20 hrs by double dilution method; type: functional; conditions: time 18-20 hrs
Staphylococcus aureus [3] = test: Antibacterial activity against methicillin-resistant Staphylococcus aureus clinical isolate ATCC0101 incubated for 18 to 20 hrs by double dilution method; type: functional; conditions: time 18-20 hrs
Staphylococcus aureus [4] = test: Antibacterial activity against methicillin-resistant Staphylococcus aureus clinical isolate ATCC05107 incubated for 18 to 20 hrs by double dilution method; type: functional; conditions: time 18-20 hrs
Staphylococcus aureus [5] = test: Antibacterial activity against methicillin-resistant Staphylococcus aureus clinical isolate ATCC10105 incubated for 18 to 20 hrs by double dilution method; type: functional; conditions: time 18-20 hrs
HepG2 [6] = test: Cytotoxicity against human HepG2 cells assessed as cell survival rate at 50 uM incubated for 24 hrs by MTT assay relative to control; type: functional
HepG2 [7] = test: Cytotoxicity against human HepG2 cells assessed as cell survival rate at 25 uM incubated for 24 hrs by MTT assay relative to control; type: functional
Staphylococcus aureus [8] = test: Antibiofilm activity against methicillin-resistant Staphylococcus aureus ATCC2858 assessed as biofilm eradication at 0.049 to 100 uM incubated for 24 hrs by crystal violet staining based assay; type: functional, organism-based; conditions: dose 0.049-100 µM
Staphylococcus aureus [9] = test: Antibiofilm activity against methicillin-resistant Staphylococcus aureus ATCC2858 assessed as minimal biofilm eradication concentration incubated for 24 hrs by crystal violet staining based assay; type: functional
Staphylococcus aureus [10] = test: Induction of drug resistance in methicillin-resistant Staphylococcus aureus ATCC2858 assessed as fold increase in MIC measured over 20 passage by broth dilution assay; type: functional; conditions: time 20.0 day
Staphylococcus aureus [11] = test: Antibacterial activity against methicillin-resistant Staphylococcus aureus ATCC2858 assessed as reduction in bacterial growth at 0.5 to 4 times of MIC measured after 4 to 8 hrs by time kill assay; type: functional, organism-based; conditions: time 4-8 hrs
Staphylococcus aureus [12] = test: Antibiofilm activity against methicillin-resistant Staphylococcus aureus ATCC2858 assessed as biofilm eradication incubated for 24 hrs by crystal violet staining based assay; type: functional, organism-based; conditions: dose 0.049-100 µM, DDE = dose-dependent effect
Cell membrane = test: Induction of cell membrane damage in methicillin-resistant Staphylococcus aureus ATCC2858 at 2 times of MIC measured after 4 to 12 hrs by DAPI and propidium iodide staining based confocal laser scanning microscopy analysis; conditions: time 4-12 hrs
Staphylococcus aureus [13] = test: Induction of drug resistance in methicillin-resistant Staphylococcus aureus ATCC2858 assessed as fold increase in MIC measured after 19 passage by broth dilution assay; type: functional; conditions: time 19.0 day
[14] = Toxicity in overnight fasted ICR mouse assessed as change in appearance at 200 mg/kg, IG measured for 7 days; type: organism-based; conditions: in vivo, po, 168 h, time 7 day
[15] = Toxicity in overnight fasted ICR mouse assessed as change in activity at 200 mg/kg, IG measured for 7 days; type: organism-based; conditions: in vivo, po, 168 h, time 7 day
[16] = Toxicity in overnight fasted ICR mouse assessed as change in body weight at 200 mg/kg, IG measured for 7 days; type: organism-based; conditions: in vivo, po, 168 h, time 7 day
[17] = Hepatotoxicity in C57BL/6J mouse assessed as central necrosis at 200 mg/kg, po measured after 24 hrs by hematoxylin and eosin staining based immunohistochemical analysis; type: toxicity, organism-based; conditions: in vivo
[18] = Hepatotoxicity in C57BL/6J mouse assessed as steatosis in hepatic hilum at 200 mg/kg, po measured after 24 hrs by hematoxylin and eosin staining based immunohistochemical analysis; type: toxicity, organism-based; conditions: in vivo
Staphylococcus aureus [19] = test: Antibacterial activity against methicillin-resistant Staphylococcus aureus ATCC2858 infected in C57BL/6J mouse assessed as log reduction in bacterial titres in blood at 2 mg/kg, ip measured after 24 hrs; type: functional
Staphylococcus aureus [20] = test: Antibacterial activity against methicillin-resistant Staphylococcus aureus ATCC2858 infected in C57BL/6J mouse assessed as log reduction in bacterial titres in blood at 5 mg/kg, ip measured after 24 hrs; type: functional

Row | Compound | MIC (Staphylococcus aureus [1]) [µM] | MIC (Staphylococcus aureus [2]) [µM] | MIC (Escherichia coli) [µM] | MIC (Pseudomonas aeruginosa) [µM] | MIC (Candida albicans) [µM] | further results
1 | CO[C@@]1(NC(=O)Cc2cccs2)C(=O)N2C(C(=O)O)=C(COC(N)=O)CS[C@@H]21 [CEFOXITIN] | 25 (≈ 10.7 µg/mL) | 100 (≈ 42.7 µg/mL) | 50 (≈ 21.4 µg/mL) | > 200 |  | 
2 | O=C(Nc1ccc(C(F)(F)F)cc1)Nc1ccc(Sc2nc3ccccc3s2)c(Cl)c1 | 0.39 (≈ 0.187 µg/mL) | 0.78 (≈ 0.374 µg/mL) | > 200 | > 200 | > 200 | MIC (Staphylococcus aureus [3]): 0.78 µM (≈ 0.374 µg/mL); MIC (Staphylococcus aureus [4]): 1.56 µM (≈ 0.749 µg/mL); MIC (Staphylococcus aureus [5]): 1.56 µM (≈ 0.749 µg/mL); Activity (HepG2 [6]): 20%; Activity (HepG2 [7]): >75%; Activity (Staphylococcus aureus [8]): Active; MBEC (Staphylococcus aureus [9]): 5 µM
3 | O=C(Nc1ccc(Sc2nc3ccccc3s2)c(Cl)c1)N1CCCC1 | > 200 | > 200 | > 200 | > 200 | > 200 | 
4 | O=C(Nc1ccc(Sc2nc3ccccc3s2)c(Cl)c1)N1CCSC1 | > 200 | > 200 | > 200 | > 200 | > 200 | 
5 | O=C(Nc1ccc(Sc2nc3ccccc3s2)cc1)Nc1ccc(F)c(F)c1 | 0.39 (≈ 0.161 µg/mL) | 0.78 (≈ 0.323 µg/mL) | > 200 | > 200 | > 200 | MIC (Staphylococcus aureus [3]): 1.56 µM (≈ 0.645 µg/mL); MIC (Staphylococcus aureus [4]): 3.12 µM (≈ 1.29 µg/mL); MIC (Staphylococcus aureus [5]): 1.56 µM (≈ 0.645 µg/mL)
6 | CC1COc2c(N3CCN(C)CC3)c(F)cc3c(=O)c(C(=O)O)cn1c23 (stereo not drawn) [OFLOXACIN] | 0.78 (≈ 0.282 µg/mL) | 1.56 (≈ 0.564 µg/mL) | 0.39 (≈ 0.141 µg/mL) | 1.56 (≈ 0.564 µg/mL) |  | MBEC (Staphylococcus aureus [9]): 3 µM
7 | O=C(Nc1ccc(Sc2nc3ccccc3s2)c(Cl)c1)Nc1ccc(Cl)cc1Cl | 0.78 (≈ 0.375 µg/mL) | 0.78 (≈ 0.375 µg/mL) | > 200 | > 200 | > 200 | 
8 | O=C(Nc1ccc(Sc2nc3ccccc3s2)c(Cl)c1)Nc1ccccc1C(F)(F)F | 3.12 (≈ 1.5 µg/mL) | 3.12 (≈ 1.5 µg/mL) | > 200 | > 200 | > 200 | 
9 | CC(=O)NC[C@H]1CN(c2ccc(N3CCOCC3)c(F)c2)C(=O)O1 [LINEZOLID] | 3.12 (≈ 1.05 µg/mL) | 6.25 (≈ 2.11 µg/mL) | > 50 | > 50 |  | 
10 | O=C(Nc1ccc(Sc2nc3ccccc3s2)cc1)N1CCOCC1 | 200 (≈ 74.3 µg/mL) | 200 (≈ 74.3 µg/mL) | > 200 | > 200 | > 200 | 
11 | O=C(Nc1ccc(Br)cc1)Nc1ccc(Sc2nc3ccccc3s2)c(Cl)c1 | 0.78 (≈ 0.383 µg/mL) | 0.78 (≈ 0.383 µg/mL) | > 200 | > 200 | > 200 | 
12 | O=C(Nc1ccc(C(F)(F)F)cc1)Nc1ccc(Sc2nc3cc(Cl)ccc3s2)c(Cl)c1 | 0.39 (≈ 0.201 µg/mL) | 0.78 (≈ 0.401 µg/mL) | > 200 | > 200 | > 200 | 
13 | O=C(NCc1ccccc1Cl)Nc1ccc(Sc2nc3ccccc3s2)c(Cl)c1 | > 200 | > 200 | > 200 | > 200 | > 200 | 
14 | CN[C@H](CC(C)C)C(=O)N[C@H]1C(=O)N[C@@H](CC(N)=O)C(=O)N[C@H]2C(=O)N[C@H]3C(=O)N[C@H](C(=O)N[C@H](C(=O)O)c4cc(O)cc(O)c4-c4cc3ccc4O)[C@H](O)c3ccc(c(Cl)c3)Oc3cc2cc(c3O[C@@H]2O[C@H](CO)[C@@H](O)[C@H](O)[C@H]2O[C@H]2C[C@](C)(N)[C@H](O)[C@H](C)O2)Oc2ccc(cc2Cl)[C@H]1O [VANCOMYCIN] |  | 0.78 (≈ 1.13 µg/mL) |  |  |  | MIC (Staphylococcus aureus [3]): 0.78 µM (≈ 1.13 µg/mL); MIC (Staphylococcus aureus [4]): 1.56 µM (≈ 2.26 µg/mL); MIC (Staphylococcus aureus [5]): 1.56 µM (≈ 2.26 µg/mL); MBEC (Staphylococcus aureus [9]): 7 µM
15 | O=C(Nc1ccc(Sc2nc3ccccc3s2)c(Cl)c1)N1CCOCC1 | > 200 | > 200 | > 200 | > 200 | > 200 | 
16 | CN1CCN(C(=O)Nc2ccc(Sc3nc4ccccc4s3)c(Cl)c2)CC1 | 100 (≈ 41.9 µg/mL) | 100 (≈ 41.9 µg/mL) | 200 (≈ 83.8 µg/mL) | 200 (≈ 83.8 µg/mL) | 200 (≈ 83.8 µg/mL) | 
17 | O=C(Nc1ccc(F)c(F)c1)Nc1ccc(Sc2nc3cc(Cl)ccc3s2)c(Cl)c1 | 0.39 (≈ 0.188 µg/mL) | 0.78 (≈ 0.376 µg/mL) | > 200 | > 200 | > 200 | fold change (FC) (Staphylococcus aureus [10]): 64; MIC (Staphylococcus aureus [3]): 1.56 µM (≈ 0.752 µg/mL); MIC (Staphylococcus aureus [4]): 1.56 µM (≈ 0.752 µg/mL); MIC (Staphylococcus aureus [5]): 0.78 µM (≈ 0.376 µg/mL); Activity (HepG2 [6]): 50%; Activity (HepG2 [7]): >75%; Activity (Staphylococcus aureus [11]): Active; Activity (Staphylococcus aureus [12]): Dde; MBEC (Staphylococcus aureus [9]): 4 µM; Activity (Cell membrane): Active; fold change (FC) (Staphylococcus aureus [13]): 256; Activity [14]: Non-Toxic; Activity [15]: Non-Toxic; Activity [16]: Non-Toxic; Activity [17]: Non-Toxic; Activity [18]: Non-Toxic; log(activity) (Staphylococcus aureus [19]): 1.9; log(activity) (Staphylococcus aureus [20]): 2.4
18 | O=C(Nc1ccccc1C(F)(F)F)N1CCC(Sc2nc3ccccc3s2)CC1 | 3.12 (≈ 1.37 µg/mL) | 3.12 (≈ 1.37 µg/mL) | > 200 | > 200 | > 200 | 
19 | O=C(Nc1ccc(F)cc1)Nc1ccc(Sc2nc3ccccc3s2)c(Cl)c1 | 0.78 (≈ 0.335 µg/mL) | 1.56 (≈ 0.671 µg/mL) | > 200 | > 200 | > 200 | 
20 | O=C(Nc1ccc(Sc2nc3ccccc3s2)cc1)Nc1ccc(C(F)(F)F)cc1 | 0.39 (≈ 0.174 µg/mL) | 0.39 (≈ 0.174 µg/mL) | > 200 | > 200 | > 200 | MIC (Staphylococcus aureus [3]): 0.78 µM (≈ 0.347 µg/mL); MIC (Staphylococcus aureus [4]): 0.78 µM (≈ 0.347 µg/mL); MIC (Staphylococcus aureus [5]): 0.39 µM (≈ 0.174 µg/mL); Activity (HepG2 [7]): >75%; Activity (Staphylococcus aureus [11]): Active; Activity (Staphylococcus aureus [8]): Active; MBEC (Staphylococcus aureus [9]): 5 µM
